Results reported in patent publication US20250367209A1 (SOUTHERN RESEARCH INSTITUTE, priority 2022, published 2025).
“Also recorded” adds a separate entry of the source.

How the values were obtained:
primary neurons = assay: Multi-electrode array, Aβ-induced network hyperexcitability; format: cell-based, rat; details: one hour preincubation, 500 nM Aβ oligomers, four hours
Excerpt: Primary neuron cultures: All animal procedures were approved by the Institutional Animal Care and Use Committee at the University of Alabama at Birmingham (UAB). As before (Rush, et al. (2020) Neurobiol Dis 134, 104668; Voskobiynyk, et al. (2020) eLife 9, e57354), primary rat neurons were isolated from timed-pregnant Sprague-Dawley rats. Briefly, dams were euthanized with isoflurane anesthesia asphyxiation, and hippocampal tissue was isolated from E19 embryos in Hibernate E, then digested in papain for 10 minutes at 37° C. Neurons were triturated into a single cell suspension in Neurobasal supplemented with B-27, L-Glutamine, and 10% FBS, then plated in 96-well plates coated with PDL and laminin at 30,000 neurons per well in 200 uL medium or in 24-well coated plates with or without coverslips at 50,000 per well. Cultures were maintained at 37° C. with 5% CO2. […]
Multi-electrode arrays: As in a prior study (Voskobiynyk, et al. (2020) eLife 9, e57354), 30,000 neurons were plated per well in a 48-well MEA plate. […] 69 for one hour, then 500 nM Aβ oligomers was applied and neurons were returned to the incubator for four hours before being recorded for 20 more minutes. […] Mean baseline frequency for each well was calculated from unit frequencies, then each unit in the post-treatment recording was normalized to the baseline average of its well. […]

Tau-BIN1SH3 interaction = Tau-BIN1SH3 interaction (Homo sapiens (Human), UniProt P10636); assay: Tau-Flag PLA, Tau-BIN1SH3; format: cell-based; details: 15 μM, HEK-293 cells
Experimental: (§1) Tau-Flag PLA for Tau-SH3 interactions: To clone the SH3 constructs, a C-terminal Flag tag was added to the Tau construct using PCR, then the Tau sequence was replaced with the desired SH3 domain using In-Fusion HD cloning kit (Takara Bio). Next, an N-terminal GST tag was added to help expression using In-Fusion, resulting in GST-SH3-Flag plasmids. As a negative control, restriction enzymes were used to remove the FynSH3 from the FynSH3 construct, resulting in GST-Flag. All sequences were confirmed with Sanger sequencing, and expression in HEK-293 cells was verified by western blot and immunocytochemistry. Plating and experimental timeline was the same as above. Cells were transfected with 125 ng of Tau-mKate2 and 500 ng SH3 plasmid with 1.5 μL Fugene. compound no. 69 was applied to final concentration 15 μM. For Tau-SH3 PLA, we used Dako Tau (1:1000) and Flag (1:1000) primary antibodies.

[1] = system: endogenous Tau-tubulin interaction; assay: Tau-Tubulin PLA in HEK-293 cells; format: cell-based, human; details: 15 μM, 24 hours, untransfected HEK-293 cells
Experimental: Tau-Tubulin PLA: Untransfected HEK-293 cells were used to measure endogenous Tau-tubulin interaction. Cells were grown for 48 hours before applying 15 µM compound no. 69 for 24 hours. Cells were fixed and PLA was run as above except with Dako Tau (1:1000) and α-tubulin (1:2000) primary antibodies.

Tau-PxxP5/6 = Tau-PxxP5/6 (Homo sapiens (Human), UniProt P10636); assay: Isothermal titration calorimetry, Tau-PxxP5/6 peptide; format: binding
Experimental: ITC experiments were performed on an Auto-iTC200 system (Malvern Instruments, Westborough, MA). ITC sample cell contained ˜120 μM full-length Tau, FynSH3, or Tau-PxxP5/6 (titrand), and the syringe contained 1 mM compound no. 69 (titrant). Each titration experiment consisted of 16 injections of […] of titrant into titrand at 25° C. Background mixing heat was determined from injections of titrant into the same buffer without titrand. Data analysis was performed using the built-in analysis module in Origin 7 provided by the ITC manufacturer. The normalized titration heat was fitted to a “one set of sites” model to determine the best-fit binding parameters.

Fyn kinase = Fyn kinase (Homo sapiens (Human), UniProt P06241); assay: Custom panel for Fyn kinase activity; format: biochemical; details: 3 μM
Excerpt: 69 and compound no. […] Since Fyn was not included in that panel, a custom panel was completed for Fyn kinase activity.

Tau-SrcSH3 interaction = Tau-SrcSH3 interaction (Homo sapiens (Human), UniProt P10636); assay: Tau-Flag PLA, Tau-SrcSH3; format: cell-based; details: 15 μM, HEK-293 cells
Experimental: as §1

Tau-LckSH3 interaction = Tau-LckSH3 interaction (Homo sapiens (Human), UniProt P10636); assay: Tau-Flag PLA, Tau-LckSH3; format: cell-based; details: 15 μM, HEK-293 cells
Experimental: as §1

Tau, Fyn = assay: Western blot of Tau, Fyn and GAPDH levels in neurons; format: cell-based, rat; details: 15 μM, 24 hours
Experimental: Like before (Rush, et al. (2020) Neurobiol Dis 134, 104668), at DIV13, neurons were treated with 15 μM compound no. 69 or Vehicle. 24 hours later, cells were harvested in lysis buffer (50 mM Tris, 150 mM NaCl, 5 mM EDTA, 0.1% SDS, 0.1% Triton-X-100, and 0.5% sodium deoxycholate) and centrifuged to remove cellular debris. Samples were diluted in LDS and reducing agent and heated at 70° C. for 10 minutes. Samples were run on 4-12% bis-tris gels in MOPS buffer with 5 μg protein per well, determined by a Bradford assay, then transferred to a PDVF membrane. Membrane was blocked for 1 hour in 50% Odysey blocking buffer then probed overnight with Fyn3 (1:1000) antibody at 4° C. Membrane was washed 3× in TBST, then incubated for 1 hour at RT in IRDye 700 or 800 conjugated secondary and scanned on an Odyssey Scanner. Images were quantified in ImageJ. After probing for GAPDH (1:5,000), the blot was stripped with Restore PLUS Western Blot Sripping Buffer for 30 minutes at room temperature, washed in TBST, and probed for DAKO Tau (1:10,000).

Sequence of Tau-SrcSH3 interaction (P10636 other isoform, or with tags, fused parts or gaps): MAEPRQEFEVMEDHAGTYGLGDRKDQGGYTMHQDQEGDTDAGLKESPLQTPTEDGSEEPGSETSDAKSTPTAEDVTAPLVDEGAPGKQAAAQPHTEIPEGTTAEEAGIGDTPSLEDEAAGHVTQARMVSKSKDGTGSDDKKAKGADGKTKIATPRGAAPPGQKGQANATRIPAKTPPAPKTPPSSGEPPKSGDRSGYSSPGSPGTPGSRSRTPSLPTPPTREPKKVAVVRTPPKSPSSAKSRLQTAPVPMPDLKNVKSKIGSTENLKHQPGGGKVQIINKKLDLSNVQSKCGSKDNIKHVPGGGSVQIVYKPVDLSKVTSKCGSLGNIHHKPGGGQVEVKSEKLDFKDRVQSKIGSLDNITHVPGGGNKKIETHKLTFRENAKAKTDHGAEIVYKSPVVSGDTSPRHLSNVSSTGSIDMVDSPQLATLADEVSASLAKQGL
Sequence of Tau-BIN1SH3 interaction (P10636 other isoform, or with tags, fused parts or gaps): as above
Sequence of Tau-LckSH3 interaction (P10636 other isoform, or with tags, fused parts or gaps): as above
Sequence of Fyn kinase (P06241 whole entry): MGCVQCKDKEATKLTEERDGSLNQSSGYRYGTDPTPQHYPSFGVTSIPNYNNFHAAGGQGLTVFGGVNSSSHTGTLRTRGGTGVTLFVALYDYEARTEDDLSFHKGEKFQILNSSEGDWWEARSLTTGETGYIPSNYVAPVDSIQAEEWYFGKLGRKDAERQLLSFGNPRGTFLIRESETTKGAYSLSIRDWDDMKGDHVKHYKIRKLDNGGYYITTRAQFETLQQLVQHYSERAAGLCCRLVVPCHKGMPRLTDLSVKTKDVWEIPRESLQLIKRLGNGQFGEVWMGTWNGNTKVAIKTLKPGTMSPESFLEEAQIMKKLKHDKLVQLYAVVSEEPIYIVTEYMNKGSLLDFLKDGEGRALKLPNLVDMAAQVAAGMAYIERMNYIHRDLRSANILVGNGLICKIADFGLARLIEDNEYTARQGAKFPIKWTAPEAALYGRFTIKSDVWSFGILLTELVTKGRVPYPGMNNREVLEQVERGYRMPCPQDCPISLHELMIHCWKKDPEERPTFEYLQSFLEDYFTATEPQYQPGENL

O=C(CN1CCOc2ccccc21)Nc1nnc(-c2ccccn2)[nH]1 [compound no. 69]
Aβ-induced network hyperexcitability, multi-electrode array (primary neurons): prevented Aβ-induced network8hyperexcitability at both 3 and 15 μM; also recorded: ameliorates Aβ-induced network hyperexcitability | Tau-BIN1SH3 interaction, Tau-Flag PLA (Tau-BIN1SH3 interaction): moderately inhibited; also recorded: inhibits Tau-BIN1SH3 interaction | Tau-tubulin interaction, PLA [1]: did not inhibit Tau-tubulin binding; also recorded: does not inhibit Tau-tubulin interaction | interaction with Tau-PxxP5/6 peptide, ITC (Tau-PxxP5/6): No interaction was observed | Fyn kinase inhibition (Fyn kinase): did not inhibit Fyn | Tau-SrcSH3 interaction, Tau-Flag PLA (Tau-SrcSH3 interaction): slightly but insignificantly inhibited; also recorded: does not inhibit Tau-SrcSH3 interaction | Tau-LckSH3 interaction, Tau-Flag PLA (Tau-LckSH3 interaction): strongly inhibited; also recorded: inhibits Tau-LckSH3 interaction | Tau, Fyn (and GAPDH) levels in primary neurons (Tau, Fyn): did not lower Tau or Fyn levels; also recorded: does not reduce Tau, Fyn, or GAPDH levels
